# Molecular target: T1, WT-TTR (Homo sapiens, UniProt P02766)
# T1 construct: TTR is a 127-residue β-sheet rich homotetramer; made in house; host or cells: Escherichia coli
# Assay: Acid-mediated (pH 4.4) TTR fibril formation assay (turbidity)
# Type: biochemical
# Conditions: inhibitor 7.2 μM, tetrameric TTR 3.6 μM, pH 4.4, 72 h
# Procedure: The inhibitory activity of the oxime ethers (7.2 μM) against acid-mediated (pH 4.4) TTR (3.6 μM) amyloid formation is summarized in FIG. 10.
# Wild type TTR was purified from an Escherichia coli expression system as described previously (Lashuel, H. A.; et al. Biochemistry 1999, 38, 13560-13573). Disposable cuvettes (Fisher #14 385 938) were charged with 495 μL of a 0.4 mg/mL stock of TTR (7.2 μM) in 10 mM phosphate (pH 7.2), 100 mM KCl, 1 mM EDTA, and 0.2% NaN3. 5 μL of the inhibitors in DMSO (1.44 mM) were added to the TTR solutions and the samples were incubated for 30 min at 37° C. The pH was then lowered to 4.4 by addition of 0.5 mL of 200 mM acetate buffer (pH 4.2, 100 mM KCI, 1 mM EDTA, 0.2% NaN3) to each cuvette. The cuvettes were left undisturbed for 72 h at 37° C., then vortexed to evenly distribute any precipitate throughout the sample. The turbidity was measured on a Hewlett Packard model 8453 UV-Vis Spectrophotometer at 350 and 400, or 500 nm. All samples were performed in duplicate or triplicate and results reported are representative examples of at least three analyses.
# FIG. 4 is a table showing the activities of the 96 bisarylhydrazones that were tested for inhibition of fibril formation. Bisarylhydrazone activity (7.2 μM) against WT-TTR (3.6 μM) amyloid fibril formation at pH 4.4 (72 h). […]
smiles,measurement,value
"Oc1cc(Cl)cc(Cl)c1 [3,5-Dichlorophenol]",inhibition at 7.2 µM,86%
